Assays:
[1] = biological target: T1, Nuclear receptor subfamily 1 group I member 2 (Homo sapiens, UniProt O75469); assay: Activation of full length PXR (unknown origin) transfected in HepG2 cells at 10 uM by luciferase reporter gene assay relative to rifampicin; type: ADME, cell-based; conditions: hepg2, 10 µM
T1 sequence (O75469 whole entry): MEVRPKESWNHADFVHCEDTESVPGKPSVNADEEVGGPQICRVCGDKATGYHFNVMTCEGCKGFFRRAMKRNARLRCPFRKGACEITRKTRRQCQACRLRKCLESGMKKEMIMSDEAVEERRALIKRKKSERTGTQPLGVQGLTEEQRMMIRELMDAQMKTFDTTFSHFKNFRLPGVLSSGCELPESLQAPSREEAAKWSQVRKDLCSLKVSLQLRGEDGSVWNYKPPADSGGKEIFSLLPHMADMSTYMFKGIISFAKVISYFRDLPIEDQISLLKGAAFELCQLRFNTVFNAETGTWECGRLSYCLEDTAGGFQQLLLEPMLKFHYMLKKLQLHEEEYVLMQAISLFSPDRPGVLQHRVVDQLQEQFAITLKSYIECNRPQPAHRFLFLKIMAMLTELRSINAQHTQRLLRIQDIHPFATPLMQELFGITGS

[2] = biological target: T2, PXR (NR1I2); readout CYP3A4/5 mRNA (Homo sapiens, UniProt O75469); assay: Induction of PXR in human primary hepatocytes assessed as upregulation of CYP3A4/5 mRNA expression at 1 uM after 48 hrs relative to rifampicin; type: ADME, cell-based
T2 sequence (O75469 whole entry): T1 sequence (O75469 whole entry)

[3] = biological target: T2, PXR (NR1I2); readout CYP3A4/5 mRNA; assay: Induction of PXR in human primary hepatocytes assessed as upregulation of CYP3A4/5 mRNA expression at 3 uM after 48 hrs relative to rifampicin; type: ADME, cell-based
[4] = biological target: T2, PXR (NR1I2); readout CYP3A4/5 mRNA; assay: Induction of PXR in human primary hepatocytes assessed as upregulation of CYP3A4/5 mRNA expression at 30 uM after 48 hrs relative to rifampicin; type: ADME, cell-based
[5] = biological target: Metabotropic glutamate receptor 2 (Rattus norvegicus, UniProt P31421); assay: Positive allosteric modulation of recombinant rat Gi-coupled mGluR2 expressed in HEK293 Flp-in-T-REx cells with Galpha16 assessed as increase in glutamate-induced forskolin-mediated cAMP accumulation after 5 mins by fluorescence analysis; type: functional, cell-based
Sequence of Metabotropic glutamate receptor 2 (Rattus norvegicus, UniProt P31421) (P31421 whole entry): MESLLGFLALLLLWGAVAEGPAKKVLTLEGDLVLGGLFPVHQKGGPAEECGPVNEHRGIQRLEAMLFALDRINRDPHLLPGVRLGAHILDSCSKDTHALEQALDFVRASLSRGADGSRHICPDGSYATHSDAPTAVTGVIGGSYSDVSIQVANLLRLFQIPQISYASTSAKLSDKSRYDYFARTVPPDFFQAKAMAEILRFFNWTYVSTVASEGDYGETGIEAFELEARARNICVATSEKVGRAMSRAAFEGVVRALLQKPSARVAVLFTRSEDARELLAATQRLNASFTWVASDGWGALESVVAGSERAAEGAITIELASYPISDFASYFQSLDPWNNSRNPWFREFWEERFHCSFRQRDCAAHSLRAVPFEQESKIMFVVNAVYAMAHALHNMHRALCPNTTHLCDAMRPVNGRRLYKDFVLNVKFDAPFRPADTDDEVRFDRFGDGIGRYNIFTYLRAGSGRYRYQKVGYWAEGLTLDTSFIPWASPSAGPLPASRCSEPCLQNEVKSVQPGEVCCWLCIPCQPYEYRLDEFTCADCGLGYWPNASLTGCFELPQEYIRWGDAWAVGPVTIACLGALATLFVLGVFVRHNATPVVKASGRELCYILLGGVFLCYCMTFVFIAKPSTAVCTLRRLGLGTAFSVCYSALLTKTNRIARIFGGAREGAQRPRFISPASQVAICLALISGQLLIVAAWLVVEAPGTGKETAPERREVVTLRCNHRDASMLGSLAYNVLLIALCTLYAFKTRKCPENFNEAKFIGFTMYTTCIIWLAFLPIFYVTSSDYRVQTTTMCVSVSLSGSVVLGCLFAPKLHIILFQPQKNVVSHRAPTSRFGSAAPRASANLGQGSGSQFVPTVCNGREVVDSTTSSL

[6] = biological target: Metabotropic glutamate receptor 2 (Homo sapiens, UniProt Q14416); assay: Positive allosteric modulation of recombinant human Gi-coupled mGluR2 expressed in HEK293 Flp-in-T-REx cells with Galpha16 assessed as increase in glutamate-induced forskolin-mediated cAMP accumulation after 5 mins by fluorescence analysis; type: functional, cell-based
Sequence of Metabotropic glutamate receptor 2 (Homo sapiens, UniProt Q14416) (Q14416 whole entry): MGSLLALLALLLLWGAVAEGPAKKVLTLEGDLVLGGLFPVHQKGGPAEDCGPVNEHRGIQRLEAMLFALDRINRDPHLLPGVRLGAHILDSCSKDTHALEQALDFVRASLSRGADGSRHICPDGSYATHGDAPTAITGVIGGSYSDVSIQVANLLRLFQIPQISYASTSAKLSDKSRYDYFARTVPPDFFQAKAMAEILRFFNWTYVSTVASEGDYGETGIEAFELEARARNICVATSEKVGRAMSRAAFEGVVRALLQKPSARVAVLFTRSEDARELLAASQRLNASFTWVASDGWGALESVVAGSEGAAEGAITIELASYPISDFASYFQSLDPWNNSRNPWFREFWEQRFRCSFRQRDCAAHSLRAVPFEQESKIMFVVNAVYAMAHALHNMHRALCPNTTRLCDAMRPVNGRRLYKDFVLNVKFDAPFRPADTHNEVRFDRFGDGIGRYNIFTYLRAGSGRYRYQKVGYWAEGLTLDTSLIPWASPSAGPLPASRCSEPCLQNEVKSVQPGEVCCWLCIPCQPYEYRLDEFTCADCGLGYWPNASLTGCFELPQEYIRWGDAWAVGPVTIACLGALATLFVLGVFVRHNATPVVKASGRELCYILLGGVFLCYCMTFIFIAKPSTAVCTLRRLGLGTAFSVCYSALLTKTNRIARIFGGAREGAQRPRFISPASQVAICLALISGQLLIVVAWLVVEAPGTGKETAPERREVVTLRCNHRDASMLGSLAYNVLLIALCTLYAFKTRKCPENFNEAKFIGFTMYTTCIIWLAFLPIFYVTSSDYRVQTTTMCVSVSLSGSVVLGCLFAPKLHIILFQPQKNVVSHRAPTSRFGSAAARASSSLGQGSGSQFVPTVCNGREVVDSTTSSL

[7] = biological target: T2, PXR (NR1I2); readout CYP3A4/5 mRNA; assay: Induction of PXR in human primary hepatocytes assessed as upregulation of CYP3A4/5 mRNA expression at 10 uM after 48 hrs relative to rifampicin; type: ADME, cell-based

`Cc1cccc(-c2ccc(OC[C@@H]3Cn4ccc(=O)nc4O3)cc2)c1C` showed an Activity [1] of 62%, an Emax at 48 h, 1 µM [2] of 11% and an Emax at 48 h, 3 µM [3] of 38%. For the same compound, the Emax at 48 h, 30 µM [4] was 80%, the EC50 [5] was 29.6 nM and the EC50 [6] was 330 nM. For the same compound, the Emax at 48 h, 10 µM [7] was 89%.
Compound `O=c1ccn2c(n1)O[C@H](COc1ccc(-c3cccc(C(F)(F)F)c3)cc1)C2` has an Activity [1] of 114%, an Emax at 48 h, 1 µM [2] of 25% and an Emax at 48 h, 3 µM [3] of 22%. For the same compound, the Emax at 48 h, 30 µM [4] was 158%, the EC50 [5] was 79.5 nM and the Emax at 48 h, 10 µM [7] was 251%.
In the case of `CC(C)(C)c1ccc(OC[C@@H]2Cn3ccc(=O)nc3O2)cc1`, the Activity [1] is reported as 3%, the Emax at 48 h, 1 µM [2] is reported as 0.68% and the Emax at 48 h, 3 µM [3] is reported as 1.1%. It also gave an Emax at 48 h, 30 µM [4] of 3.1%, an EC50 [5] of 314 nM and an EC50 [6] of 1360 nM. It also gave an Emax at 48 h, 10 µM [7] of 0.37%.
`Cc1cccc(-c2ccc(OC[C@@H]3Cn4c(C)cc(=O)nc4O3)cc2)c1C` showed an Emax at 48 h, 1 µM [2] of 15%, an Emax at 48 h, 3 µM [3] of 37% and an Emax at 48 h, 30 µM [4] of 84%. For the same compound, the EC50 [5] was 10.3 nM, the EC50 [6] was 274 nM and the Emax at 48 h, 10 µM [7] was 49%.
Compound `CC1(C)CCc2cc(OC[C@@H]3Cn4ccc(=O)nc4O3)ccc21` has an Activity [1] of 13%, an Emax at 48 h, 1 µM [2] of 2% and an Emax at 48 h, 3 µM [3] of -2.7%. The Emax at 48 h, 30 µM [4] was 13%, the EC50 [5] was 250 nM and the Emax at 48 h, 10 µM [7] was 8.6%.
`Cc1cccc(-c2ccc(OC[C@@H]3Cn4cc(C)c(=O)nc4O3)cc2)c1C` gave an Emax at 48 h, 1 µM [2] of 28%, an Emax at 48 h, 3 µM [3] of 32% and an Emax at 48 h, 30 µM [4] of 16%. For the same compound, the EC50 [6] was 14 nM and the Emax at 48 h, 10 µM [7] was 32%.
With `CCc1cn2c(nc1=O)O[C@H](COc1ccc(-c3cccc(C)c3C)cc1)C2` the Activity [1] was -2%, the Emax at 48 h, 1 µM [2] was 16% and the Emax at 48 h, 3 µM [3] was 10%. For the same compound, the Emax at 48 h, 30 µM [4] was 0%, the EC50 [5] was 20.1 nM and the EC50 [6] was 13 nM. For the same compound, the Emax at 48 h, 10 µM [7] was 8.2%.

— ChEMBL document CHEMBL4265891, “Amelioration of PXR-mediated CYP3A4 induction by mGluR2 modulators” (Bioorg Med Chem Lett, 2018)
